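Protocol summary: plate cells (96-well), add compound at 5 concentrations, incubate 48 h, interpolate endpoints linearly. At the GI50, growth is halved. TGI marks complete inhibition of growth.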
Tests used:
Assay in all cases: growth of human tumour cells (NCI), 48 h
LOX IMVI melanoma = test system: LOX IMVI melanoma
ACHN renal = test system: ACHN renal
SF-539 CNS = test system: SF-539 CNS
OVCAR-8 ovarian = test system: OVCAR-8 ovarian
MDA-MB-231 breast = test system: MDA-MB-231 breast
KM12 colon = test system: KM12 colon
SK-OV-3 ovarian = test system: SK-OV-3 ovarian
U251 CNS = test system: U251 CNS

Row | SMILES | GI50 (LOX IMVI melanoma) | TGI (LOX IMVI melanoma) | GI50 (ACHN renal) | TGI (ACHN renal) | GI50 (SF-539 CNS) | TGI (SF-539 CNS) | GI50 (OVCAR-8 ovarian) | TGI (OVCAR-8 ovarian) | GI50 (MDA-MB-231 breast) | TGI (MDA-MB-231 breast) | GI50 (KM12 colon) | TGI (KM12 colon) | GI50 (SK-OV-3 ovarian) | TGI (SK-OV-3 ovarian) | GI50 (U251 CNS) | TGI (U251 CNS)
1 | COc1cc2nnn3c4ncccc4c(N=O)c3c2cc1OC | 1160 nM | > 100 µM | 258 nM | 2.15 µM | 2750 nM | 9.15 µM | 1770 nM | > 100 µM | 4.09 µM | > 53.9 µM | 2.46 µM | > 100 µM | 6.96 µM | 41.7 µM | 777 nM | > 39.9 µM
2 | O=C(O)C1C2C=CC(O2)C1C(=O)Nc1ncccn1 (stereo unspecified) |  | > 100 µM |  | > 100 µM |  | > 100 µM |  | > 100 µM |  | > 100 µM |  | > 100 µM |  | > 100 µM |  | > 100 µM
3 | C=CC(=O)Nc1cccc(Nc2nc(Nc3ccc(OCCOC(F)F)cc3)ncc2F)c1 | 1370 nM | 4.52 µM | 1350 nM | 10.4 µM |  |  | 3330 nM | 19.4 µM | 5.02 µM | 51.1 µM | 3.57 µM | 17.2 µM | 0.706 µM | 3.34 µM | 2390 nM | 18.9 µM
4 | CCC(=O)c1cc([N+](=O)[O-])c(Br)s1 | 1880 nM | 3.46 µM | 1710 nM | 3.26 µM | 3900 nM | 16.8 µM | 2230 nM | 5.04 µM | 6.79 µM | 21.3 µM | 11.6 µM | 24.2 µM | 19.4 µM | 33.9 µM | 1850 nM | 4.02 µM
5 | NC(=O)c1cc(I)ccc1NC(=O)COc1ccccc1 | 1010 nM | > 100 µM | 1500 nM | > 100 µM | 290 nM | 1.58 µM | 876 nM | > 100 µM | 1.32 µM | 26.6 µM | 0.328 µM | > 100 µM | 3.21 µM | > 69.1 µM | 365 nM | 10.8 µM
6 | COc1cc2cc(Oc3ccc(NC(=O)c4cccc5c4OCCO5)cc3)c(C)nc2cc1OC | 9280 nM | > 100 µM | 4010 nM | 27.3 µM | 9090 nM | > 100 µM | 3680 nM | 29.8 µM | 6.06 µM | > 100 µM | 4.39 µM | > 100 µM | 49.8 µM | > 100 µM | 5030 nM | > 100 µM
7 | COc1ccc2[nH]c(-c3ccccc3)cc2c1 | > 100000 nM | > 100 µM | > 100000 nM | > 100 µM | > 100000 nM | > 100 µM | > 100000 nM | > 100 µM | 61.8 µM | > 100 µM | 73.8 µM | > 100 µM | > 100 µM | > 100 µM | > 100000 nM | > 100 µM
8 | c1ccc(CC(NCCNC(Cc2ccccc2)c2ccccc2)c2ccccc2)cc1 (stereo unspecified) | 185 nM | 0.375 µM | 585 nM | 2.49 µM | 451 nM | 1.64 µM |  |  | 0.331 µM | 1.24 µM | 0.384 µM | 1.52 µM | 1.3 µM | 3.93 µM | 406 nM | 1.43 µM

Reference: PubChem BioAssay (NCI)
